Data from patent publication US20260159511A1, “SMALL MOLECULE STING ANTAGONISTS” (CURADEV PHARMA PVT. LTD., priority 2021, published 2026).
Where two headings read alike, the source gives them in different places.

System: IRF pathway in THP1-Dual™ cells, THP-1 (HAQ)
Test: Reporter gene expression assay in THP-1 cells (THP1-Dual, IRF pathway Lucia luciferase reporter, 2′,3′-cGAMP stimulation)
Type: cell-based, human
Conditions: Homo sapiens, read-out: THP-1 (HAQ) Activity (IC50 value range)
Method in brief: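 THP-1-derived THP1-Dual cells (5×10^4) preincubated with compound for 10 minutes, then stimulated with 5 μM 2′,3′-cGAMP. After 20 hr, secreted Lucia luciferase (IRF pathway reporter) measured in supernatant by luminescence.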

[1] = THP1-Dual cells preincubated with compound 10 minutes, stimulation with 5 μM 2′,3′-cGAMP for 20 hr, QUANTI-Luc readout of the supernatant

Row | IC50 [1] [nM] | Compound | IC50 [nM]
1 | – | O=C(Nc1ccc2c(c1)N(Cc1ccccc1)C(=O)CS2)Nc1c[nH]c2ccc(-c3ccn[nH]3)cc12 [Example 38, 1-(5-(1H-Pyrazol-5-yl)-1H-indol-3-yl)-3-(4-benzyl-3-oxo-3,4-dihydro-2H-benzo[b][1,4]thiazin-6-yl)urea] | 1000 to 10000
2 | < 1000 | CC1CN(C(=O)c2ccccc2)c2cc(NC(=O)Nc3c[nH]c4ccccc34)ccc2S1 (centres unmarked) [Example 70, 1-(4-Benzoyl-2-methyl-3,4-dihydro-2H-benzo[b][1,4]thiazin-6-yl)-3-(1H-indol-3-yl)urea] | –
3 | 1000 to 10000 | Cc1[nH]c2ccccc2c1NC(=O)Nc1ccc2c(c1)N(Cc1ccccc1)C(=O)CS2 [Example 9, 1-(4-benzyl-3-oxo-3,4-dihydro-2H-benzo[b][1,4]thiazin-6-yl)-3-(2-methyl-1H-indol-3-yl)urea] | –
4 | < 1000 | N#Cc1cccc(-c2ccc3[nH]cc(NC(=O)Nc4ccc5c(c4)N(Cc4ccccc4)C(=O)CS5)c3c2)c1 [Example 45, 1-(4-benzyl-3-oxo-3,4-dihydro-2H-benzo[b][1,4]thiazin-6-yl)-3-(5-(3-cyanophenyl)-1H-indol-3-yl)urea] | –
5 | < 1000 | O=C(Nc1ccc2c(c1)N(Cc1noc3ccccc13)C(=O)CS2)Nc1c[nH]c2ccccc12 [Example 26, 1-(4-(benzo[d]isoxazol-3-ylmethyl)-3-oxo-3,4-dihydro-2H-benzo[b][1,4]thiazin-6-yl)-3-(1H-indol-3-yl)urea] | –
